According to US20190227072A1, “Biomarkers for Carcinogenesis and Uses Thereof” (GEORGETOWN UNIVERSITY, priority 2016, published 2019):
Entries after “also recorded” stand apart in the source; their conditions may differ.

Legend:
HepG2 cells = test: DHHεdA formation in HepG2 cellular DNA after EH or AA treatment, LC-MS/MS-MRM; type: cell-based, human; details: 24 h
Description: HepG2 cells (#HB-8065, ATCC, Manassas, Va.) were grown in complete DMEM (#10-013, Corning Life Sciences, Tewksbury, Mass.) until 85-90% confluent. Cells were treated with a final concentration of 100 μM or 300 μM of either arachidonic acid (AA) or EH solubilized in 70% EtOH for 24 h. Cells were then scraped down in media and transferred to a centrifuge tube and spun for 3000 rpm for 5 min. The pellet was washed 2× with 1×PBS, centrifuging between washes. DNA was then isolated from the cells and prepared for LC-MS/MS-MRM, after enzymatic hydrolysis as described above.
DNA was isolated by a QIAGEN Blood and Cell Culture DNA Maxi Kit (#13362, QIAGEN Inc., Valencia, Calif.) using the protocol recommended by the manufacturer. For hydrolysis, dry DNA (50 to 1000 μg) was dissolved in 5 mM magnesium chloride and 0.5 mM GSH solution (1 mL per 1 mg of DNA), then 50 fmol of [^15N5]-DHHεdA 1,2 and 50 fmol of [^15N5]-DHHεdA 3,4 were added as internal standards. DNA was hydrolyzed by incubation with DNase I (1300 units per mg of DNA, #D4527-40KU, Sigma-Aldrich, St. Louis, Mo.) for 30 min at 37° C., followed by a second addition of DNase I (1300 units per mg of DNA) and incubation for an additional 10 min at 37° C. Finally, phosphodiesterase I (0.06 units per mg DNA, #P3243-1VL, Sigma-Aldrich, St. Louis, Mo.), alkaline phosphatase (380 units per mg DNA, #10 108 146 001, Roche Diagnostic GmbH, Mannheim, Germany) and adenosine deaminase (0.5 units, #LS009043, Worthington Biochemical Corporation, Lakewood, N.J.) were added and the sample was incubated for 60 min at 37° C. After hydrolysis, a small portion of the hydrolysate was saved for further T quantification, and the remaining sample was purified using Phenomenex Strata-X 33μ 30 mg/1 mL polymeric reverse phase solid phase extraction columns (#8B-S100-TAK, Phenomenex, Torrance, Calif.). Before loading, samples columns were washed by ACN (3×1 mL) and stabilized by 25 mM ammonium formate pH=4.00 (3×1 mL). After loading, DNA hydrolysate columns were washed by 2.5% ACN in 25 mM ammonium formate pH=4.00 (1×1 mL), 5% ACN in 25 mM ammonium formate pH=4.00 (1×1 mL), followed by DHHεdA collection by 30% ACN in 25 mM ammonium formate pH=4.00 (1×1 mL). The DHHεdA fraction was dried using a SpeedVac rotary concentrator, re-dissolved in 400 μL 1:1 water:ACN, transferred to HPLC vials, dried and kept at −20° C. Before quantification, samples were dissolved in 60 μL of water and 37 μL was injected on LC-MS.
Quantification was carried out on a SCIEX 6500 QTRAP triple quadrupole mass spectrometer (AB Sciex LLC, Framingham, Mass.) interfaced with a Waters ACQUITY UPLC liquid chromatography system equipped with Waters ACQUITY UPLC BEH C18 50×2.1 mm, 1.7 μm particle size column (Waters Corporation, Milford, Mass.). The separation of adducts was performed isocratically by eluting with 13.5% ACN, 1 mM ammonium formate buffer over 6.5 min using 0.5 mL/min flow rate at 40° C., followed by 100% ACN wash. The ESI source operated in positive mode. The MRM experiment was performed using ion transitions of 406.2-290.2 m/z (DHHεdA) and 411.2-295.1 m/z ([^15N5]-DHHεdA) with CE of 28 eV for quantification, and those of 406.2-160.1 m/z (DHHεdA) and 411.2-165.0 m/z ([^15N5]-DHHεdA) with a CE of 76 eV were used for structural confirmation. All other parameters were optimized to achieve maximum signal intensity. Calibration curves were constructed for two HPLC resolved peaks before each analysis using standard solutions of DHHεdA and [^15N5]-DHHεdA. A constant concentration of [^15N5]-DHHεdA (1 fmol/μL) was used with different concentrations of DHHεdA (3.3 amol/μL-65 fmol/μL) and analyzed using 37 μL injections by LC-MS/MS-MRM. The standard curves were linear in the range from 0.37 to 800 fmol of DHHεdA on column for both peaks (1/x weighting; r^2=0.9998 and r^2=0.9984 for both LC resolved pairs of DHHεdA stereoisomers 1,2 and 3,4 respectively). […]

[1] = system: Primary human hepatocytes; test: FACS detection of DHHεdA in nuclei of EH-treated primary human hepatocytes; type: cell-based; details: 300 μM EH
Description: Primary human hepatocytes (#HUFS1M, Lot#HUM4132, Triangle Research Labs, Durham, N.C.) were cultured in hepatocyte media (#5201, ScienCell Research Laboratories, San Diego, Calif.) until 85-90% confluent. Cells were then treated with a final concentration of 300 μM EH dissolved in 70% EtOH, added to the culture media. The cells were collected at the designated time points following EH treatment: 0, 4, 8, 12 and 24 h. The nuclei were extracted using Nuclei EZ Prep Nuclei Isolation Kit (#NUC-101, Sigma-Aldrich, St. Louis, Mo.) and fixed with 3.7% formaldehyde for 10 min. The nuclei were then prepared for FACS analysis using the method shown previously.
The geometric mean of the fluorescence intensity of Alexa Fluor 488-labeled DHHεdA positive cells was measured using FACS. The output values of triplicate control and EH treatment groups (see above) were averaged and the standard deviation was calculated using Excel. Additionally, a Student's t-test was performed to determine significance by comparing the triplicate values for the control group to those of the EH treated group for each individual time point of 4, 8, 12, and 24 h.

Xpa−/− mice [2] = test: 72-week tumor bioassay of Xpa−/− mice fed antioxidant diets; type: in vivo; details: 72 weeks on diet, control diet 100%
Description: C3H/HeN.Xpa^−/− mice were created by crossing C57/B6. Xpa^−/− mice with C3H/HeN mice. The resulting heterozygous mice were then backcrossed to C3H mice for five generations. Mice homogeneous for the Xpa-null allele on a C3H background were subsequently generated by brother-sister mating. All of the mice were housed in a temperature-controlled, light-regulated space with 12-hour light and dark cycles and were given unrestricted access to food and water throughout the experiments. […] The animals were fed with AIN-76A powder diets obtained from Dyets, Inc. (Bethlehem, Pa.) at the age of 4 weeks; four types of diets (control, α-lipoic acid, Theaphenon E and vitamin-E) were used in this study. The only difference between the diets is the sucrose content to be replaced by the antioxidant (Table 1: the doses of the antioxidants, α-lipoic acid (2 g/kg), Theaphenon E (20 g/kg) and vitamin E (1.8 g/kg)), were selected according to recent studies, respectively. The nutrition for all the four diets was calculated within the range of 3694 to 3766 kcal/kg. (n=6-7 for time dependent DNA adduct assay, n=18-19 for tumor bioassay after 72 weeks under different diets (see Table 4)). […] Xpa^−/− mice were fed with four types of diets (control, Theaphenon E, α-lipoic acid, and vitamin E) for 72 weeks.

Xpa−/− mice [3] = test: 32-week bioassay of Xpa−/− mice fed antioxidant diets, γ-OHPdG by LC-MS/MS; type: in vivo; details: for liver γ-OHPdG levels: antioxidant diet vs control diet, liver DNA, LC-MS/MS; for γ-OHPdG levels in the lungs: antioxidant diet, lung (non-target organ)
Description: All of the mice were housed in a temperature-controlled, light-regulated space with 12-hour light and dark cycles and were given unrestricted access to food and water throughout the experiments. […] The animals were fed with AIN-76A powder diets obtained from Dyets, Inc. (Bethlehem, Pa.) at the age of 4 weeks; four types of diets (control, α-lipoic acid, Theaphenon E and vitamin-E) were used in this study. The only difference between the diets is the sucrose content to be replaced by the antioxidant (Table 1: the doses of the antioxidants, α-lipoic acid (2 g/kg), Theaphenon E (20 g/kg) and vitamin E (1.8 g/kg)), were selected according to recent studies, respectively. The nutrition for all the four diets was calculated within the range of 3694 to 3766 kcal/kg. […] The liver tissues were dissected and kept at −80° C. until usage for DNA isolation.
DNA (100-500 μg) was dissolved in 5 mM magnesium chloride (800 μL per mg DNA) and spiked with 100 fmol of [^13C10,^15N5]-γ-OHPdG and 50 fmol of [^13C10,^15N5]−/− OHPdG. Enzymatic hydrolysis was performed by incubation with DNase I (1300 units/mg DNA) at 37° C. for 30 min followed by a second addition of DNase I (1300 units/mg DNA). After an additional 10 min at 37° C., alkaline phosphatase (380 units/mg DNA), phosphodiesterase I (0.06 units/mg DNA) and adenosine deaminase (0.5 units) were added, and the mixture was incubated for 1 h. After digestion a small aliquot of hydrolysate was used for dG quantification and the remaining digest was purified by solid phase extraction (SPE) using polymeric C18, 30 mg/1 mL, Strata-X columns (Phenomenex, Inc., Torrance, Calif.). Prior to use, the columns were conditioned by ACN (3×1 mL) and 25 mM ammonium formate buffer pH=4 (3×1 mL). After sample loading, the columns were washed with 2.5% ACN in 25 mM ammonium formate buffer pH=4 (1×1 mL). Then, γ-OHPdG adducts were collected by eluting with 5% ACN in 25 mM ammonium formate buffer pH=4 (1×1 mL). Samples were dried over vacuum using a SpeedVac and kept at −80° C. Before quantification assay samples were reconstituted with 50 μl of water, and 37 μL of sample was injected onto LC-MS/MS.
Detection and quantification of γ-OHPdG adducts was carried on AB SCIEX 6500 QTrap triple quadrupole mass spectrometer (SCIEX, Framingham, Mass.) coupled with an ACQUITY UPLC liquid chromatography system (Waters Corporation, Milford, Mass.) equipped with 50×2.1 mm, 1.7 m particle size C18 column (Waters ACQUITY UPLC BEH C18). The separation of adducts was performed isocratically by eluting with 3% ACN, 1 mM ammonium formate buffer over 3.5 min using 0.5 mL/min flow rate at 40° C., followed by 100% ACN wash. The ESI source operated in positive mode. The multiple reaction monitoring (MRM) experiment was performed using ion transitions of 324.2-208.1 m/z (γ-OHPdG) and 339.2-218.1 m/z ([^13C10,^15N5]-γ-OHPdG) with a collision energy (CE) of 20 eV for quantification, and those of 324.2-190.1 m/z (γ-OHPdG) and 339.2-200.1 m/z ([^13C10,^15N5]-γ-OHPdG) with a CE of 47 eV for structural confirmation. All other parameters were optimized to achieve maximum signal intensity.

CCCCC/C=C\C/C=C\C/C=C\C/C=C\CCCC(=O)O [AA, arachidonic acid]
DHHεdA peak 1 (HepG2 cells; HepG2, low dose (100 μM)): bdl
DHHεdA peak 2 (HepG2 cells; HepG2, low dose (100 μM)): bdl
Total DHHεdA (HepG2 cells; HepG2, low dose (100 μM)): bdl

CCCCCC(O)C1OC1C=O (centres unmarked) [EH, 2,3-epoxy-4-hydroxynonanal]
cell death ([1]; 24 h): less than 20%
mean fluorescence intensity of DHHεdA in nuclei (FACS, 3C9C9) ([1]; 4, 8, 12 and 24 h vs control): significant difference between control and EH treated cells for every time point
DHHεdA peak 1 (HepG2 cells; human, 100 μM): 14.1 adducts/T × 10^9
DHHεdA peak 2 (HepG2 cells; human, 100 μM): 139.4 adducts/T × 10^9
Total DHHεdA (HepG2 cells; human, 100 μM): 153.5 adducts/T × 10^9
DHHεdA peak 1 (HepG2 cells; human, 300 μM): 186.6 adducts/T × 10^9
DHHεdA peak 2 (HepG2 cells; human, 300 μM): 2043.8 adducts/T × 10^9
Total DHHεdA (HepG2 cells; human, 300 μM): 2230.4 adducts/T × 10^9

O=C(O)CCCCC1CCSS1 (stereo not drawn) [α-lipoic acid]
HCC incidence (Xpa−/− mice [2]): 65%
liver γ-OHPdG levels (Xpa−/− mice [3]): effectively decreased; also recorded: significant decrease
γ-OHPdG levels in the lungs (Xpa−/− mice [3]): no significant changes

vitamin E
HCC incidence (Xpa−/− mice [2]): no significant effect
liver γ-OHPdG levels (Xpa−/− mice [3]): but not vitamin E, effectively decreased; also recorded: significant decrease
γ-OHPdG levels in the lungs (Xpa−/− mice [3]): no significant changes
